Peptide text beside a SMILES is read from it.

Regarding `Cc1cnnc2cc(Cl)ccc12`, the logP was determined as 1.98.

In turn, `N[C@@H](CCC(=O)O)C(=O)O` yielded a log partition coefficient (logP) of -3.69.

In the case of `COC(=O)Nc1cccc(Cl)c1`, the lipophilicity (logP) came to 2.58.

In turn, `NCc1ccc([N+](=O)[O-])cc1` registered a logP of 1.06.

`Nc1ccc2nc3ccccc3cc2c1` showed a lipophilicity (logP) of 2.62.

As to `O=C(O)CCCl`, the logP was determined as 0.41.

Compound `O=[N+]([O-])c1cccc2ccccc12` displayed a logP of 3.19.

`N#Cc1ccc2ccccc2n1` had a logP of 1.6.

Turning to `NC(=O)C(c1ccccc1)c1ccccn1` (centres undefined), the logP was determined as 0.83.

With `C1OC1C1CO1` (centres undefined), the logP was -0.52.

As to `c1cncc(CN2CCOCC2)c1`, the logP was found to be 0.04.

In turn, `O=CNC(=O)C1CCC1` had a lipophilicity (logP) of -0.7.

`CN(C)CCCNC(=O)c1ccccc1` showed a log partition coefficient (logP) of 1.27.

Turning to `CNC(=O)Oc1cc(C)c(C)cc1C`, the logP worked out at 2.52.

The compound `CC(=O)OCC(=O)[C@@]1(O)[C@@H](C)C[C@H]2[C@@H]3CCC4=CC(=O)C=C[C@]4(C)[C@@]3(F)[C@@H](O)C[C@@]21C` yielded a logP of 2.77.

`Cc1[nH]cnc1CSCCNC1=NS(=O)(=O)CCN1` displayed a logP of -0.74.

Regarding `Oc1cccc(Br)c1`, the logP is 2.63.

In the case of `CCC(CNC)c1ccccc1` (centres undefined), the logP amounted to 2.82.

`O=P1(NCCCl)OCCCN1CCCl` (centres undefined): the log partition coefficient (logP) came to 0.86.

As for `COc1cc([N+](=O)[O-])c(OC)cc1CC(C)N` (centres undefined), the logP amounted to 1.74.

As to `c1ccc(Cc2cc(-c3ccccc3)nnc2NCCN2CCOCC2)cc1`, the logP came out at 3.65.

In the case of `Nc1nc2ccccc2[nH]1`, the logP is 0.91.

Compound `NNC(=O)c1ccc(Cl)cc1` showed a logP of 1.18.

Take `Cc1ccc(OC(=O)c2ccc(N)cc2O)cc1`: the logP worked out at 3.38.

In turn, `CCCCCC1=Nc2cc(Cl)c(S(N)(=O)=O)cc2S(=O)(=O)N1` yielded a log partition coefficient (logP) of 2.01.

`Cc1cc(C(=O)NNCc2ccccc2)no1` registered a log partition coefficient (logP) of 1.49.

As for `CCOCCO`, the log partition coefficient (logP) is -0.32.

In turn, `Cc1ccc([N+](=O)[O-])cc1N` displayed a logP of 1.87.

Take `OCCc1cccnc1`: the log partition coefficient (logP) came to 0.12.

Compound `CCC1(CC(C)C(C)C)C(=O)NC(=O)NC1=O` (centres undefined) registered a lipophilicity (logP) of 2.02.

As for `NC(CO)C(=O)O` (centres undefined), the log partition coefficient (logP) was -3.07.

`OCC=CCO` yielded a logP of -0.81.

In turn, `Cc1cc(O)ccc1Cl` displayed a logP of 3.1.

Regarding `O=S(=O)(Nc1ccccc1)c1ccccc1`, the logP is 2.58.

Consider `COc1ccc(CC#N)cc1OC`, for which the log partition coefficient (logP) is 1.15.

For `CNC(=O)Oc1cccc2c1OC(C)(C)C2`, the log partition coefficient (logP) was found to be 2.32.

For `CC(=O)OC(C)(C)C`, the lipophilicity (logP) stood at 1.76.

In the case of `CCC1(c2ccccc2)CCC(=O)NC1=O` (centres undefined), the log partition coefficient (logP) is 1.9.

For the compound `Clc1cnc(Cl)c(Cl)c1`, the logP amounted to 3.11.

Compound `CCCOC(=O)c1ccc(N)cc1` displayed a log partition coefficient (logP) of 2.43.

Compound `ClCc1cccc(CCl)c1` gave a logP of 2.72.

In turn, `C=C1C(=O)OC2CC(C)C3C=CC(=O)C3(C)C(O)C12` (centres undefined) registered a logP of 0.36.

In turn, `NNC(=O)c1cccc(Cl)c1` gave a log partition coefficient (logP) of 1.18.

Take `O=[N+]([O-])c1cc2ccccc2[n+]([O-])c1`: the log partition coefficient (logP) is 0.56.

For `O=C1C=C(N2CCCC2)C(=O)C=C1N1CCCC1`, the log partition coefficient (logP) turned out to be 1.97.

The compound `COP(=O)(OC)OC(=CCl)c1cc(Cl)c(Cl)cc1Cl` yielded a lipophilicity (logP) of 3.53.

In turn, `CC1(c2ccccc2)NC(=O)NC1=O` (centres undefined) had a lipophilicity (logP) of 1.02.

With `O=S1(=O)Nc2ccccc2N1`, the logP is 1.12.

Take `O=C1NC(=O)[C@@]2(CCOc3ccc(F)cc32)N1`: the logP was found to be 0.78.

Compound `NC(Cc1c[nH]c2ccccc12)C(=O)O` (racemic) had a lipophilicity (logP) of -1.05.

With `O=Cc1ccc(Cl)cc1`, the logP came to 2.1.

The compound `CCc1ccccn1` yielded a logP of 1.69.

Turning to `CC[C@H](C)[C@H](NC(C)=O)C(=O)N[C@H](C(N)=O)C(C)C` (Ac-Ile-Val-NH2), the logP stood at 0.16.

For the compound `N#Cc1ccc(C#N)cc1`, the logP amounted to 0.93.

The compound `NC(Cc1ccccc1)C(=O)OCn1ncc2c(=O)[nH]cnc21` (centres undefined) came in with a logP of 0.4.

Compound `Nc1c(S(=O)(=O)O)ccc2ccccc12` had a logP of -0.97.

In turn, `CN1CCN(CCCN2c3ccccc3Sc3ccc(Cl)cc32)CC1` had a log partition coefficient (logP) of 4.88.

`CCC(=O)NN` yielded a lipophilicity (logP) of -1.

With `CC(C)I`, the log partition coefficient (logP) stood at 2.89.

Compound `Cn1cc[nH]c1=S` had a logP of -0.34.

`O=C(O)C1COc2ccccc2O1` (centres undefined): the lipophilicity (logP) was 1.4.

As for `NC(=O)Cc1cccnc1`, the logP was -0.71.

In the case of `O=c1[nH]cc(Br)c(=O)[nH]1`, the logP was -0.21.

As for `N#CCc1cccc(Oc2ccccc2)c1`, the logP is 3.03.

Turning to `CC(=O)Nc1ccc(O)cc1C`, the logP amounted to 0.17.

For `C#CCn1cncc1[N+](=O)[O-]`, the lipophilicity (logP) worked out at 0.52.

`Cc1cccc(N(C)C)c1`: the logP is 2.8.

`CC12CC3CC(C)(C1)CC(N)(C3)C2` showed a logP of 3.28.

As for `C=C(Br)CC1(C(C)CCC)C(=O)NC(=O)NC1=O` (centres undefined), the lipophilicity (logP) turned out to be 2.09.

In turn, `Cc1c[nH]c2ccccc12` returned a logP of 2.6.

`CCCC[n+]1ccccc1.[Br-]` displayed a lipophilicity (logP) of -2.69.

The compound `CCCCC(O)CC` (centres undefined) showed a logP of 2.24.

With `CCCOC(=O)c1cccnc1`, the logP worked out at 1.94.

For the compound `CCN(CC)C(=O)N(CC)N=O`, the logP was 1.54.

`CNC(=O)Oc1cccc(N(C)C)c1` gave a logP of 1.43.

With `O=C(O)c1ccccc1O`, the logP worked out at 2.26.

Compound `O=C(O)C(Cl)(Cl)Cl` displayed a logP of 1.33.

For the compound `CCC(=O)C1(c2cccc(OC(=O)c3ccccc3)c2)CCN(C)CC1`, the log partition coefficient (logP) is 3.03.

`C=CC(=O)c1ccccc1` displayed a logP of 1.88.

For `O=c1ccc(=O)[nH][nH]1`, the lipophilicity (logP) was -0.84.

In the case of `ICCCI`, the logP amounted to 3.02.

In the case of `CC(C)c1ccc(O)cc1`, the log partition coefficient (logP) was determined as 2.9.

In turn, `CCCC(C)=O` gave a lipophilicity (logP) of 0.91.

`O=C(/C=C/c1ccccc1)c1ccccc1` gave a lipophilicity (logP) of 3.08.

On to `NC(=O)CCCc1cccnc1`, for which the logP was -0.08.

As for `Nc1ccc(C(=O)O)c(Cl)c1`, the logP turned out to be 1.33.

`CCCCNCc1cccnc1` had a logP of 1.34.

In turn, `NCCCCCc1ccccn1` showed a lipophilicity (logP) of 1.32.

Regarding `C1CCc2nnnn2CC1`, the logP was 0.14.

`COc1ccc(Cl)cc1C(=O)NCCc1ccc(C(=O)O)cc1` returned a logP of 3.4.

Compound `CCCC(=NOCC)C1C(=O)CC2(CCC(C)CC2)OC1=O` (centres undefined) gave a logP of 4.07.

Take `CO[C@H]1[C@@H](O)C[C@H](O[C@H]2[C@@H](O)C[C@H](O[C@H]3[C@@H](O)C[C@H](O[C@H]4CC[C@@]5(C)[C@H](CC[C@@H]6[C@@H]5C[C@@H](O)[C@]5(C)[C@@H](C7=CC(=O)OC7)CC[C@]65O)C4)O[C@@H]3C)O[C@@H]2C)O[C@@H]1C`: the logP is 1.8.

Consider `CN(C)c1ccc(S(N)(=O)=O)cc1`, for which the log partition coefficient (logP) worked out at 0.76.

Consider `NC(=O)C(Cl)Cl`, for which the logP was found to be 0.19.

With `C=CCC1(C(C)CCC)C(=O)NC(=O)NC1=O` (centres undefined), the logP was determined as 1.97.

`CCCC(=O)OC`: the lipophilicity (logP) came to 1.29.

As to `CCOC(C)=O`, the logP was 0.73.

`O=S(=O)(Cc1ccccc1)c1ccccc1` had a logP of 2.05.

With `CN(C)C(N(C)C)=S(I)c1cccc(Br)c1` (centres undefined), the log partition coefficient (logP) amounted to 0.01.

A word on the logP: it is a log measure of how a compound divides between an organic and an aqueous phase. Low values mean a more hydrophilic compound, high ones a more lipophilic compound.

Source of the values: the OPERA property sets (Mansouri et al. 2018).
